Measured values as given in US4223036A, “1-(1,3-Dioxolan-2-ylmethyl)-1H-1,2,4-triazoles” (Janssen Pharmaceutica N.V., priority 1979, dated 1980).
Structures can show the parent of a compound that is named as a salt.

How the values were obtained:
Candida albicans [1] = experiment: Activity against vaginal candidosis in rats (lowest oral dose active at the 14th day after infection); type: in vivo, Female Wistar rats; set-up: lowest effective oral dose (vaginal candidosis in rats): unit not given here; details: oral once a day for two days, active at 14th day after infection; for lowest effective oral dose (vaginal candidosis in rats): Table I; for minimal effective dose: Candida albicans, 336 h
Experimental: Experiment A: Activity of Compounds (I) Against Vaginal Candidosis in Rats
Female Wistar rats of ±100 g body weight were used. They were ovariectomized and hysterectomized and after three weeks of recovery, 100 μg of oestradiol undecylate in sesame oil was given subcutaneously once a week for 3 consecutive weeks. The thus induced pseudooestrus was controlled by microscopic examination of vaginal smears. Food and water were left available ad libitum.
The rats were infected intravaginally with 8.10^5 cells of Candida albicans, grown on Sabouraud broth for 48 hours at 37° C. and diluted with saline. The date of infection varied from day +25 to day +32 after surgical intervention, depending on the appearance of signs of induced pseudo-oestrus.
The drugs under investigation were administered orally once a day for two days starting from the day of infection. For each experiment there were placebo treated controls. The results were assessed by taking vaginal smears with sterile swabs on several days after infection. The swabs were put into Sabouraud broth in petri-dishes and incubated for 48 hours a 37° C. If no growth of Candida albicans occured, i.e., when the animals were negative at the end of the experiment, this was due to drug administration because it never happened in placebo treated controls.
The Tables I, II and III below give the lowest oral dose of the drug under investigation which was found active at the 14th day after infection.

Candida albicans [2] = experiment: Activity against crop candidosis in turkeys (dose whereby crops of 50% of animals were completely negative); type: in vivo; details: medicated feed for 13 consecutive days
Experimental: Experiment B: Activity of Compounds (I) Against Crop Candidosis in Turkeys
Turkeys of 14 days old were infected in the crop with 4.10^6 Candida albicans cells, grown on Sabouraud broth for 48 hours at 37° C. and diluted with saline. The volume of the inoculum was 1 ml. The drug under investigation were premixed in 500 mg of lacton and thereafter admixed in 1000 g of meal without any additives. The concentration of the drug under investigation in the meal was expressed in mg/kg.
The animals were given the medicated feed for 13 consecutive days starting on the day of infection. At the end of the experiment all animals were sacrificed. At autopsy the crops were removed, emptied and grinded in an ultra-turrax mixer in 15 ml of sterile saline. Colony counting was done on Sabouraud agar and the results given in the Tables I, II and III represent the ED50, i.e., the dose of the drug whereby the crops of 50% of the animals were completely negative for Candida albicans.

Row | Structure (SMILES) | lowest effective oral dose (vaginal candidosis in rats) (Candida albicans [1]) | ED50 (crop candidosis in turkeys) (Candida albicans [2]; Table II) | other results
1 | CCNc1ccc(OC[C@H]2CO[C@](Cn3ccnc3)(c3ccc(Cl)cc3Cl)O2)cc1 (relative stereo) [NHCH2CH3, cis-4-[2-(2,4-dichlorophenyl)-2-(1H-imidazol-1-ylmethyl)-1,3-dioxolan-4-ylmethoxy]-N-ethylbenzenamine] | 2.5 |  | ED50 (crop candidosis in turkeys) (Candida albicans [2]; Table I): 31 mg/kg of feed
2 | O=CN1CCN(c2ccc(OC[C@H]3CO[C@](Cn4cncn4)(c4ccc(Cl)cc4Cl)O3)cc2)CC1 (relative stereo) [CHO, cis-4-{4-[2-(2,4-dichlorophenyl)-2-(1H-1,2,4-triazol-1-ylmethyl)-1,3-dioxolan-4-ylmethoxy]phenyl}-1-piperazinecarboxaldehyde] |  | 16 mg/kg of feed | minimal effective dose (Candida albicans [1]; Table II): 1.25 mg/kg
3 | Clc1ccc([C@@]2(Cn3ccnc3)OC[C@H](COc3ccc(N4CCOCC4)cc3)O2)c(Cl)c1 (relative stereo) | 2.5 |  | ED50 (crop candidosis in turkeys) (Candida albicans [2]; Table I): 16 mg/kg of feed
4 | NC(=O)CN1CCN(c2ccc(OC[C@H]3CO[C@](Cn4ccnc4)(c4ccc(Cl)cc4Cl)O3)cc2)CC1 (relative stereo) | 1.25 |  | 
5 | CC(=O)Nc1cccc(OC[C@H]2CO[C@](Cn3ccnc3)(c3ccc(Cl)cc3Cl)O2)c1 (relative stereo) [3 (NHCOCH3), cis-N-{3-[2-(2,4-dichlorophenyl)-2-(1H-imidazol-1-ylmethyl)-1,3-dioxolan-4-ylmethoxy]phenyl}acetamide nitrate] |  |  | minimal effective dose (Candida albicans [1]; Table III): 10 mg/kg; ED50 (crop candidosis in turkeys) (Candida albicans [2]; Table III): 63 mg/kg of feed
6 | CNC(=S)N1CCN(c2ccc(OC[C@H]3CO[C@](Cn4ccnc4)(c4ccc(Cl)cc4Cl)O3)cc2)CC1 (relative stereo) | 2.5 |  | ED50 (crop candidosis in turkeys) (Candida albicans [2]; Table I): 125 mg/kg of feed
7 | O=S(=O)(Cc1ccccc1)N1CCN(c2ccc(OC[C@H]3CO[C@](Cn4ccnc4)(c4ccc(Cl)cc4Cl)O3)cc2)CC1 (relative stereo) |  |  | ED50 (crop candidosis in turkeys) (Candida albicans [2]; Table I): 16 mg/kg of feed
8 | CCCC(=O)N1CCN(c2ccc(OC[C@H]3CO[C@](Cn4cncn4)(c4ccc(Cl)cc4Cl)O3)cc2)CC1 (relative stereo) [CO(CH2)2CH3, cis-1-{4-[2-(2,4-dichlorophenyl)-2-(1H-1,2,4-triazol-1-ylmethyl)-1,3-dioxolan-4-ylmethoxy]phenyl}-4-(1-oxobutyl)piperazine dihydrochloride] |  | 16 mg/kg of feed | 
9 | COc1ccc(C2(Cn3ccnc3)OCC(COc3ccc(N4CCN(C(C)=O)CC4)cc3)O2)cc1 (stereo not shown) [1-acetyl-4-{4-[2-(1H-imidazol-1-ylmethyl)-2-(4-methoxyphenyl)-1,3-dioxolan-4-ylmethoxy]phenyl}piperazine] |  |  | ED50 (crop candidosis in turkeys) (Candida albicans [2]; Table III): 31 mg/kg of feed
10 | CCOC(=O)N1CCN(c2ccc(OCC3COC(Cn4ccnc4)(c4ccc(OC)cc4)O3)cc2)CC1 (stereo not shown) [ethyl 4-{4-[2-(1H-imidazol-1-ylmethyl)-2-(4-methoxyphenyl)-1,3-dioxolan-4-ylmethoxy]phenyl}-1-piperazinecarboxylate (E)-2-butenedioate (2:1)] |  |  | minimal effective dose (Candida albicans [1]; Table III): 2.5 mg/kg
11 | O=S(=O)(Cc1ccccc1)N1CCN(c2ccc(OC[C@H]3CO[C@](Cn4cncn4)(c4ccc(Cl)cc4Cl)O3)cc2)CC1 (relative stereo) [SO2CH2C6H5, cis-1-{4-[2-(2,4-dichlorophenyl)-2-(1H-1,2,4-triazol-1-ylmethyl)-1,3-dioxolan-4-ylmethoxy]phenyl}-4-(phenylmethylsulfonyl)piperazine monohydrate] |  | 16 mg/kg of feed | 
12 | CC(C)CN1CCN(c2ccc(OC[C@H]3CO[C@](Cn4ccnc4)(c4ccc(Cl)cc4Cl)O3)cc2)CC1 (relative stereo) |  |  | ED50 (crop candidosis in turkeys) (Candida albicans [2]; Table I): 16 mg/kg of feed
13 | O=C(c1ccccc1)N1CCN(c2ccc(OC[C@H]3CO[C@](Cn4cncn4)(c4ccc(Cl)cc4Cl)O3)cc2)CC1 (relative stereo) [COC6 H5, cis-1-benzoyl-4-{4-[2-(2,4-dichlorophenyl)-2-(1H-1,2,4-triazol-1-ylmethyl)-1,3-dioxolan-4-ylmethoxy]phenyl}piperazine] |  |  | minimal effective dose (Candida albicans [1]; Table II): 1.25 mg/kg
14 | CC(C)N1CCN(c2ccc(OC[C@H]3CO[C@](Cn4ccnc4)(c4ccc(Cl)cc4Cl)O3)cc2)CC1 (relative stereo) | 2.5 |  | 
15 | CCN1CCN(c2ccc(OC[C@H]3CO[C@](Cn4ccnc4)(c4ccc(Cl)cc4Cl)O3)cc2)CC1 (relative stereo) [drawing 49] | < 2.5 |  | 
16 | CCOC(=O)N1CCN(c2ccc(OC[C@H]3CO[C@](Cn4cncn4)(c4ccc(Cl)cc4Cl)O3)cc2)CC1 (relative stereo) [COOC2 H5, cis-ethyl 4-{4-[2-(2,4-dichlorophenyl)-2-(1H-1,2,4-triazol-1-ylmethyl)-1,3-dioxolan-4-ylmethoxy]phenyl}1-piperazinecarboxylate dihydrochloride] |  | 8 mg/kg of feed | 
17 | CCCN1CCN(c2ccc(OC[C@H]3CO[C@](Cn4cncn4)(c4ccc(Cl)cc4Cl)O3)cc2)CC1 (relative stereo) [(CH2)2CH3] |  | 16 mg/kg of feed | 
18 | COC(=O)N1CCN(c2ccc(OC[C@H]3CO[C@](Cn4cncn4)(c4ccc(Cl)cc4Cl)O3)cc2)CC1 (relative stereo) [COOCH 3, cis-methyl 4-{4-[2-(2,4-dichlorophenyl)-2-(1H-1,2,4-triazol-1-ylmethyl)-1,3-dioxolan-4-ylmethoxy]phenyl}-1-piperazinecarboxylate] |  | 8 mg/kg of feed | 
19 | CCC(=O)N1CCN(c2ccc(OC[C@H]3CO[C@](Cn4cncn4)(c4ccc(Cl)cc4Cl)O3)cc2)CC1 (relative stereo) [COC2 H5, cis-1{4-[2-(2,4-dichlorophenyl)-2-(1H-1,2,4-triazol-1-ylmethyl)-1,3-dioxolan-4-ylmethoxy]phenyl}-4-(1-oxopropyl)piperazine dihydrochloride] |  | 8 mg/kg of feed | 
20 | NC(=S)Nc1ccc(OC[C@H]2CO[C@](Cn3ccnc3)(c3ccc(Cl)cc3Cl)O2)cc1 (relative stereo) [NHCSNH2, cis-N-{4-[2-(2,4-dichlorophenyl)-2-(1H-imidazol-1-yl-methyl)-1,3-dioxolan-4-ylmethoxy]phenyl}thiourea] | 20 |  | 
21 | CCCCN1CCN(c2ccc(OC[C@H]3CO[C@](Cn4ccnc4)(c4ccc(Cl)cc4Cl)O3)cc2)CC1 (relative stereo) |  |  | ED50 (crop candidosis in turkeys) (Candida albicans [2]; Table I): 31 mg/kg of feed
22 | O=CN1CCN(c2ccc(OC[C@H]3CO[C@](Cn4ccnc4)(c4ccc(Cl)cc4Cl)O3)cc2)CC1 (relative stereo) | < 10 |  | 
23 | CCCCN1CCN(c2ccc(OC[C@H]3CO[C@](Cn4cncn4)(c4ccc(Cl)cc4Cl)O3)cc2)CC1 (relative stereo) [(CH2)3CH3] |  | 16 mg/kg of feed | 
24 | CNc1ccc(OC[C@H]2CO[C@](Cn3ccnc3)(c3ccc(Cl)cc3Cl)O2)cc1 (relative stereo) [NHCH3, cis-4-[2-(2,4-dichlorophenyl)-2-(1H-imidazol-1-ylmethyl)-1,3-dioxolan-4-ylmethoxy]-N-methylbenzenamine] | 5 |  | 
25 | CN1CCN(c2ccc(OC[C@H]3CO[C@](Cn4ccnc4)(c4ccc(Cl)cc4Cl)O3)cc2)CC1 (relative stereo) | 2.5 |  | 
26 | O=C(Oc1ccccc1)N1CCN(c2ccc(OC[C@H]3CO[C@](Cn4cncn4)(c4ccc(Cl)cc4Cl)O3)cc2)CC1 (relative stereo) [COOC6 H5, cis-phenyl 4-{4-[2-(2,4-dichlorophenyl)-2-(1H-1,2,4-triazol-1-ylmethyl)-1,3-dioxolan-4-ylmethoxy]phenyl}-1-piperazinecarboxylate] |  | 16 mg/kg of feed | 
27 | O=C(Nc1ccc(OC[C@H]2CO[C@](Cn3ccnc3)(c3ccc(Cl)cc3Cl)O2)cc1)c1ccc(Cl)cc1 (relative stereo) |  |  | ED50 (crop candidosis in turkeys) (Candida albicans [2]; Table I): 31 mg/kg of feed
28 | CC(C)N1CCN(c2ccc(OC[C@H]3CO[C@](Cn4cncn4)(c4ccc(Cl)cc4Cl)O3)cc2)CC1 (relative stereo) [CH(CH3)2] |  |  | minimal effective dose (Candida albicans [1]; Table II): 2.5 mg/kg
29 | CCOC(=O)N1CCN(c2cccc(OC[C@H]3CO[C@](Cn4ccnc4)(c4ccc(Cl)cc4Cl)O3)c2)CC1 (relative stereo) |  |  | minimal effective dose (Candida albicans [1]; Table III): 2.5 mg/kg
